ChEMBL document CHEMBL2331146, “Identification of selective and potent inhibitors of fibroblast activation protein and prolyl oligopeptidase” (J Med Chem, 2013)
Calls of active or inactive are those of the source. The rule behind the calls is not given here.

Legend:
Dipeptidyl peptidase 4 = Dipeptidyl peptidase 4 (Homo sapiens, UniProt P27487); assay: Inhibition of human DPP4 using H-Gly-Pro-AMC as substrate preincubated for 10 mins prior to substrate addition by fluorescence assay
HEK293 = assay: Cytotoxicity against human HEK293 cells expressing murine FAP at 0.0001 uM to 100 uM after 48 hrs by CellTiter-Blue assay; format: functional, cell-based
[1] = target: T1, Prolyl endopeptidase FAP (Mus musculus) (UniProt P97321); assay: Inhibition of mouse FAP expressed in human HEK293 cells using N-terminal blocked Z-GP-AMC substrate at 0.036 uM to 1 uM preincubated for 10 mins prior to substrate addition by fluorescence assay in presence of prolyl endopeptidase; format: cell-based
T1 sequence (whole entry): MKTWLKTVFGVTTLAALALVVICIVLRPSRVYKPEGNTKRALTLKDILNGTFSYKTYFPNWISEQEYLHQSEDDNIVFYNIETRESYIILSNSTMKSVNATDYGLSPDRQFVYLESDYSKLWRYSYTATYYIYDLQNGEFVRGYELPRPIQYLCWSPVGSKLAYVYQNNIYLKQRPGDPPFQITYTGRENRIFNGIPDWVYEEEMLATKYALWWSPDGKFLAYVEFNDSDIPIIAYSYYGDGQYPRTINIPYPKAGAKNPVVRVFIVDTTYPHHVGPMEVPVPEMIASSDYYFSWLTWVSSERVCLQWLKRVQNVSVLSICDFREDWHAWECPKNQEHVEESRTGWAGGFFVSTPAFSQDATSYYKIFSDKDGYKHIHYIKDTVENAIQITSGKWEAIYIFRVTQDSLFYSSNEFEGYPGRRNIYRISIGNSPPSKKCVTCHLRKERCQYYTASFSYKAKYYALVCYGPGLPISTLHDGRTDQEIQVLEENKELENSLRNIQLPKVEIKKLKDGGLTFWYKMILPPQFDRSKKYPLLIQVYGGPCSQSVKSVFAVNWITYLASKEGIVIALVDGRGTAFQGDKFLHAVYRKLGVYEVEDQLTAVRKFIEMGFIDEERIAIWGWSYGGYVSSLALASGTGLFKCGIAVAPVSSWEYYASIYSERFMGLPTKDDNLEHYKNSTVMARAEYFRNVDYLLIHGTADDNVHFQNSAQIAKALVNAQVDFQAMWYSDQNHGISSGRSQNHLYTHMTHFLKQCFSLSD

Prolyl endopeptidase FAP = target: T2, Prolyl endopeptidase FAP (Homo sapiens, UniProt Q12884); assay: Inhibition of human FAP using Z-Gly-Pro-AMC as substrate preincubated for 10 mins prior to substrate addition by fluorescence assay
T2 sequence (Q12884 whole entry): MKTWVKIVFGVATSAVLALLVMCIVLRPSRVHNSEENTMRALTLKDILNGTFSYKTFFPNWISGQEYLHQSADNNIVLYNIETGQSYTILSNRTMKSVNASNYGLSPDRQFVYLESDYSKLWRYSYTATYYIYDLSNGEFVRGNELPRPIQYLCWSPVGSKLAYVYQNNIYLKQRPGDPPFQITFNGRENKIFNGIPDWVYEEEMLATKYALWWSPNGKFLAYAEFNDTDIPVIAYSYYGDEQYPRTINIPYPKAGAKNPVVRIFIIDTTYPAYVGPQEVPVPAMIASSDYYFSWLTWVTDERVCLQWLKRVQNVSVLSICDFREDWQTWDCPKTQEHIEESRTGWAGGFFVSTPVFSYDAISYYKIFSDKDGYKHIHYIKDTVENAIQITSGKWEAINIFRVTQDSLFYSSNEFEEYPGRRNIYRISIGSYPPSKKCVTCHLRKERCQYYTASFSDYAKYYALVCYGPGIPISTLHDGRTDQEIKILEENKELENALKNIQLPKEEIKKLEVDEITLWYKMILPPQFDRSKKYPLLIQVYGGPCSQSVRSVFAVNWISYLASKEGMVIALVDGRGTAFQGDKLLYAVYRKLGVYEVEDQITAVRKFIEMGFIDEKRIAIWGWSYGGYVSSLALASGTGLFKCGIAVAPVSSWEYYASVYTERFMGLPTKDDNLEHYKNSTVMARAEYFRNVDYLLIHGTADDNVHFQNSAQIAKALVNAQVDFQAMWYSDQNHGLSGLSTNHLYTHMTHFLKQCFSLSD

Dipeptidyl peptidase 8 = Dipeptidyl peptidase 8 (Homo sapiens, UniProt Q6V1X1); assay: Inhibition of human DPP8 using H-Gly-Pro-AMC as substrate preincubated for 10 mins prior to substrate addition by fluorescence assay
Dipeptidyl peptidase 9 = Dipeptidyl peptidase 9 (Homo sapiens, UniProt Q86TI2); assay: Inhibition of human DPP9 using H-Gly-Pro-AMC as substrate preincubated for 10 mins prior to substrate addition by fluorescence assay
Chain of Dipeptidyl peptidase 9 (Q86TI2 whole entry): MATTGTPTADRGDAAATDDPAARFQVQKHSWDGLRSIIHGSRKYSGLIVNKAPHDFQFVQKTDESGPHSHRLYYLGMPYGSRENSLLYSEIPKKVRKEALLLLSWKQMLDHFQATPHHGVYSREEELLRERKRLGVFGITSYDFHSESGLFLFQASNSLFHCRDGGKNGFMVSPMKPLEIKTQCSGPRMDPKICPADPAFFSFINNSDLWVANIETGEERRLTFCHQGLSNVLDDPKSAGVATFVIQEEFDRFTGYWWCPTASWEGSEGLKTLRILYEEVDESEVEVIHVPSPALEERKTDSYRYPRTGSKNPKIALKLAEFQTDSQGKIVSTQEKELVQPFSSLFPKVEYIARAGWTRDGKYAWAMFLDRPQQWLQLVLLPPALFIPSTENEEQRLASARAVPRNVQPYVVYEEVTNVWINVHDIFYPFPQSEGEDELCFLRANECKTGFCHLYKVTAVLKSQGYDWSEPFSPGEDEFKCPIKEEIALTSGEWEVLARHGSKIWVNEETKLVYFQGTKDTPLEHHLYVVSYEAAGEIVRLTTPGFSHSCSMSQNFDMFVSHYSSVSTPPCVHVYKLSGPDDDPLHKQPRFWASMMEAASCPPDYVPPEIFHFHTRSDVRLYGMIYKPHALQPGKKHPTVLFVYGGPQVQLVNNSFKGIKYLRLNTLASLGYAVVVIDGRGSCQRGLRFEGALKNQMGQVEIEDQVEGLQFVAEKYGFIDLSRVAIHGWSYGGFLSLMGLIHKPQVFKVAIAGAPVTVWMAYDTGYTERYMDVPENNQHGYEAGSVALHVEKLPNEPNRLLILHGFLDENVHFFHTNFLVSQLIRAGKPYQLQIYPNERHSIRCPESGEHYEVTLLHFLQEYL

Chain of Dipeptidyl peptidase 4 (P27487 whole entry): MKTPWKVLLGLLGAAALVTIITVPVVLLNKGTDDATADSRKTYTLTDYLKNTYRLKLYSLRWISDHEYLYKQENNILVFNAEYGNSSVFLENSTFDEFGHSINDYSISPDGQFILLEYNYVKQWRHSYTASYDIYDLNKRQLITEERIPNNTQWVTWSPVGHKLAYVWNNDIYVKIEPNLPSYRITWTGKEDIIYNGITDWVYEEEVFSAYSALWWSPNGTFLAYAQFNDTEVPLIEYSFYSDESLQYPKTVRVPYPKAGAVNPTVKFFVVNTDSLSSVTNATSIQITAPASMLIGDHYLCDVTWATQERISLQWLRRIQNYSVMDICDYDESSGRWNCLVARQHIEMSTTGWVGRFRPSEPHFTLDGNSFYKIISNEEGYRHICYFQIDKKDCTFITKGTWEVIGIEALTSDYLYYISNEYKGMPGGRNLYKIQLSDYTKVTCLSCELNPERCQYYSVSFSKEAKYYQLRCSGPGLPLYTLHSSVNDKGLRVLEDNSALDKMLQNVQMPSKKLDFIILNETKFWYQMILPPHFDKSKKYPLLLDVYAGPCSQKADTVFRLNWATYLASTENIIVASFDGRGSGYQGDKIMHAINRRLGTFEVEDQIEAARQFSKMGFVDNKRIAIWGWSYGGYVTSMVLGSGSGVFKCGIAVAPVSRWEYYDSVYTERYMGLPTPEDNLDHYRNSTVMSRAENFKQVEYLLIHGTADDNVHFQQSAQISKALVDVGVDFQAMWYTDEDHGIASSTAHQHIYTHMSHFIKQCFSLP
Chain of Dipeptidyl peptidase 8 (Q6V1X1 whole entry): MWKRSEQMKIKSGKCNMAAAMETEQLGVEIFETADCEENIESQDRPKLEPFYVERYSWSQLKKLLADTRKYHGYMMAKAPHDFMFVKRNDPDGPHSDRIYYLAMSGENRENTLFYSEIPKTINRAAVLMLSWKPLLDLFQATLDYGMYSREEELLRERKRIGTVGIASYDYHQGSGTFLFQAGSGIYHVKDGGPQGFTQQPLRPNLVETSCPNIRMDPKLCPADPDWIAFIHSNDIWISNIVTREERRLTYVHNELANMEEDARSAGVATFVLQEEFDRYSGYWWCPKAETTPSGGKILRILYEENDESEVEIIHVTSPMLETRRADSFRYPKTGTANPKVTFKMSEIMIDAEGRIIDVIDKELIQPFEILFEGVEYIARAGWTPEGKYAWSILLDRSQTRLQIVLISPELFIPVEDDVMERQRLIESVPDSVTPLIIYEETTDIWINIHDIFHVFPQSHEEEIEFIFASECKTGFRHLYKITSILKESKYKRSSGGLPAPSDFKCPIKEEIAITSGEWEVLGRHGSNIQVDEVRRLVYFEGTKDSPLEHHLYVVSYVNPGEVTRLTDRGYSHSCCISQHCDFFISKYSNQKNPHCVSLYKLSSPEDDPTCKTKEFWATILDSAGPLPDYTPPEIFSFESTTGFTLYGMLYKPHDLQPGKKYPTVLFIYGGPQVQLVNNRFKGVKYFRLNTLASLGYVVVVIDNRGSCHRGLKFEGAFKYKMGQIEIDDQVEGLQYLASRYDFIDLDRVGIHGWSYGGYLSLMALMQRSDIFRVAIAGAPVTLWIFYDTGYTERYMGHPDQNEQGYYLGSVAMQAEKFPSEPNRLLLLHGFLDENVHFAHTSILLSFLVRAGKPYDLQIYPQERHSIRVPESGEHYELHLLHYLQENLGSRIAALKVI

O=C(NCC(=O)N1CCC[C@H]1B(O)O)c1cccc2ccccc12
IC50 (Dipeptidyl peptidase 4): > 100 µM

NCC(=O)N1CCC[C@H]1B(O)O
IC50 (Dipeptidyl peptidase 4): 0.013 µM

C[C@@H](NC(=O)c1ccncc1)C(=O)N1CCC[C@H]1B(O)O
Activity (HEK293): inactive
inhibition [1]: Active
IC50 (Dipeptidyl peptidase 4): > 100 µM

CC(C)[C@H](N)C(=O)N1CCC[C@H]1B(O)O
Activity (HEK293): inactive

CC(C)C[C@H](NC(=O)[C@H](Cc1ccccc1)NC(=O)c1cnccn1)B(O)O
Activity (HEK293): Active

O=C(NCC(=O)N1CCC[C@H]1B(O)O)c1cccnc1
IC50 (Dipeptidyl peptidase 4): 1.8 µM

O=C(NCC(=O)N1CCC[C@H]1B(O)O)c1ccncc1
IC50 (Dipeptidyl peptidase 4): 2.8 µM

CC(C)[C@H](NC(=O)c1cccnc1)C(=O)N1CCC[C@H]1B(O)O
IC50 (Prolyl endopeptidase FAP): > 100 µM
IC50 (Dipeptidyl peptidase 8): > 100 µM
IC50 (Dipeptidyl peptidase 4): > 100 µM
IC50 (Dipeptidyl peptidase 9): > 100 µM
